Columns and labels:
human mTOR = target: T1, human mTOR (Homo sapiens, UniProt P42345); assay: mTOR Kinase Activity Inhibition Test; assay type: biochemical; conditions: His-tagged mTOR (1362C), biotinylated peptide substrate, ATP, 3 hours at room temperature, fluorescence resonance energy transfer 665 nm/620 nm; read-out: IC50 value of mTOR enzyme inhibitory activity
T1 construct: the portion corresponding to 1362-2549aa at the C terminus of human mTOR; made in house
In short: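 Purified His-tagged human mTOR (1362–2549aa, from HEK293) was used with biotinylated peptide (8 μg/mL in enzyme solution) in HEPES pH 7.5 with 20 mM MnCl2. Compounds were diluted in 20 μM ATP solution, and the reaction ran 3 h at RT. Phospho-S6K(Thr389) HTRF was read as the 665/620 nm ratio, and IC50 came from % inhibition versus controls.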

WM-266-4 cells = assay: Cell Proliferation Inhibitory Test; assay type: cell-based; conditions: Homo sapiens, 72 h, cultured three days with test compound, MTT, read-out: 50% cell proliferation inhibitory activity (GI50 value)
In short: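 Cells cultured overnight, then exposed to serially diluted compound for three days; cell amount read by MTT. GI50 solved from 100×[(T−T0)/(C−T0)]=50, with T0 the value at time of compound addition and C the untreated three-day control.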

T1 sequence (P42345 1362-2549): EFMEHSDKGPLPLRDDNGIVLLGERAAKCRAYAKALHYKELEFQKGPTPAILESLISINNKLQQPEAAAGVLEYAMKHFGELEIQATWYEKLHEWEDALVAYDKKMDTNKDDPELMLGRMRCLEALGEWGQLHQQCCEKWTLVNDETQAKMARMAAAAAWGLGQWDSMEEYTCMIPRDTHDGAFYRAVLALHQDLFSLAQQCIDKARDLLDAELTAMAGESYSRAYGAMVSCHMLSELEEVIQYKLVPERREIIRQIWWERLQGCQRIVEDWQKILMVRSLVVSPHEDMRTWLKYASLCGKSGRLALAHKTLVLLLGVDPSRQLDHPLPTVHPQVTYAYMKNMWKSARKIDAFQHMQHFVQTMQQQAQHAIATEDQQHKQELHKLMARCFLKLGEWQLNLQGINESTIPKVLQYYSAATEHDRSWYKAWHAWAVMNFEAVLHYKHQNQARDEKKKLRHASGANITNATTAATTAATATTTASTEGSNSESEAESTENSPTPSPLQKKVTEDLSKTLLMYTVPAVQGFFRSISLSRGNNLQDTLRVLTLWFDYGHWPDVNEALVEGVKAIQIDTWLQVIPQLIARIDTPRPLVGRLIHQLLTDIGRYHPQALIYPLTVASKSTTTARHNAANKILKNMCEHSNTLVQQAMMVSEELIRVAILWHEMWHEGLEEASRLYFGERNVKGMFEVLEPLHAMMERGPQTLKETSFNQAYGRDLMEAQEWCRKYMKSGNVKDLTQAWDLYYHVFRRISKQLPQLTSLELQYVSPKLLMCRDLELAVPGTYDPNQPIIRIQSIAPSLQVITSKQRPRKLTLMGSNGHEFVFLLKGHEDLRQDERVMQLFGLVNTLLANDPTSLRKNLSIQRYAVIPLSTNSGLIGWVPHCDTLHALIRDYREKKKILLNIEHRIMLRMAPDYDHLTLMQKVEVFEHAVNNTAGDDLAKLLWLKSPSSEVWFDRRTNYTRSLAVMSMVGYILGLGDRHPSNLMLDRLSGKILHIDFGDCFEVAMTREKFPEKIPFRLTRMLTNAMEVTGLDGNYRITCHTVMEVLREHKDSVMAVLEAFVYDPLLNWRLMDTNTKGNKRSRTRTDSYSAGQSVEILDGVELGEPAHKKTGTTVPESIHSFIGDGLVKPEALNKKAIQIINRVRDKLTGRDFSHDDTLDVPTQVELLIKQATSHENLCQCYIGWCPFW

Row | SMILES | IC50 (human mTOR) [µM] | GI50 (WM-266-4 cells) [µM]
1 | CNC(=O)c1c[nH]c2ncc(-c3cnc4[nH]c(=O)n(CC5CCOCC5)c4c3)cc12 [Example 94, N-Methyl-5-[2-oxo-1-(tetrahydro-2H-pyran-4-ylmethyl)-2,3-dihydro-1H-imidazo[4,5-b]pyridin-6-yl]-1H-pyrrolo[2,3-b]pyridine-3-carboxamide] | 0.1 to 5 | 3 to 25
2 | N#Cc1c[nH]c2ncc(-c3cnc4[nH]c(=O)n(CC5CCOCC5)c4c3)cc12 [Example 95, 5-[2-Oxo-1-(tetrahydro-2H-pyran-4-ylmethyl)-2,3-dihydro-1H-imidazo[4,5-b]pyridin-6-yl]-1H-pyrrolo[2,3-b]pyridine-3-carbonitrile] | < 0.05 | 3 to 25
3 | O=c1[nH]c2ncc(-c3cnc4[nH]cc(F)c4c3)cc2n1CC1CCOCC1 [Example 96, 6-(3-Fluoro-1H-pyrrolo[2,3-b]pyridin-5-yl)-1-(tetrahydro-2H-pyran-4-ylmethyl)-1,3-dihydro-2H-imidazo[4,5-b]pyridin-2-one] | < 0.05 | < 3
4 | O=c1[nH]c2ncc(-c3cnc4[nH]ccc4c3)cc2n1CC1CCS(=O)(=O)CC1 [Example 97, 1-[(1,1-Dioxidotetrahydro-2H-thiopyran-4-yl)methyl]-6-(1H-pyrrolo[2,3-b]pyridin-5-yl)-1,3-dihydro-2H-imidazo[4,5-b]pyridin-2-one] | < 0.05 | 3 to 25
5 | CO[C@H]1CC[C@H](Cn2c(=O)[nH]c3ncc(-c4cnc5[nH]ccc5c4)cc32)CC1 [Example 98, 1-[(trans-4-Methoxycyclohexyl)methyl]-6-(1H-pyrrolo[2,3-b]pyridin-5-yl)-1,3-dihydro-2H-imidazo[4,5-b]pyridin-2-one] | < 0.05 | < 3
6 | CO[C@H]1CC[C@@H](Cn2c(=O)[nH]c3ncc(-c4cnc5[nH]ccc5c4)cc32)CC1 [Example 99, 1-[(cis-4-Methoxycyclohexyl)methyl]-6-(1H-pyrrolo[2,3-b]pyridin-5-yl)-1,3-dihydro-2H-imidazo[4,5-b]pyridin-2-one] | < 0.05 | < 3
7 | N#CC1(Cn2c(=O)[nH]c3ncc(-c4cnc5[nH]ccc5c4)cc32)CCOCC1 [Example 100, 4-{[2-Oxo-6-(1H-pyrrolo[2,3-b]pyridin-5-yl)-2,3-dihydro-1H-imidazo[4,5-b]pyridin-1-yl]methyl}tetrahydro-2H-pyran-4-carbonitrile] | < 0.05 | < 3
8 | O=c1[nH]c2ncc(-c3cnc4[nH]ccc4c3)cc2n1C[C@H]1CC[C@H](O)CC1 [Example 101, 1-[(trans-4-Hydroxycyclohexyl)methyl]-6-(1H-pyrrolo[2,3-b]pyridin-5-yl)-1,3-dihydro-2H-imidazo[4,5-b]pyridin-2-one] | < 0.05 | < 3
9 | O=c1[nH]c2ncc(-c3cnc4[nH]ccc4c3)cc2n1C[C@H]1CC[C@@H](O)CC1 [Example 102, 1-[(cis-4-Hydroxycyclohexyl)methyl]-6-(1H-pyrrolo[2,3-b]pyridin-5-yl)-1,3-dihydro-2H-imidazo[4,5-b]pyridin-2-one] | < 0.05 | < 3
10 | O=c1[nH]c2ncc(-c3cnc4[nH]ccc4c3)cc2n1CC1CCC(F)(F)CC1 [Example 103, 1-[(4,4-Difluorocyclohexyl)methyl]-6-(1H-pyrrolo[2,3-b]pyridin-5-yl)-1,3-dihydro-2H-imidazo[4,5-b]pyridin-2-one] | < 0.05 | < 3
11 | O=c1[nH]c2ncc(-c3cnc4[nH]ccc4c3)cc2n1CC1CCOC1 (centres unmarked) [Example 107, 6-(1H-Pyrrolo[2,3-b]pyridin-5-yl)-1-(tetrahydrofuran-3-ylmethyl)-1,3-dihydro-2H-imidazo[4,5-b]pyridin-2-one] | < 0.05 | < 3
12 | O=c1[nH]c2ncc(-c3cnc4[nH]ccc4c3)cc2n1CC1COCCN1 (centres unmarked) [Example 108, 1-(Morpholin-3-ylmethyl)-6-(1H-pyrrolo[2,3-b]pyridin-5-yl)-1,3-dihydro-2H-imidazo[4,5-b]pyridin-2-one] | < 0.05 | < 3
13 | CN1C(=O)COC[C@@H]1Cn1c(=O)[nH]c2ncc(-c3cnc4[nH]ccc4c3)cc21 [Example 109, 1-{[(3S)-4-Methyl-5-oxomorpholin-3-yl]methyl}-6-(1H-pyrrolo[2,3-b]pyridin-5-yl)-1,3-dihydro-2H-imidazo[4,5-b]pyridin-2-one] | < 0.05 | 3 to 25
14 | O=C1COC(Cn2c(=O)[nH]c3ncc(-c4cnc5[nH]ccc5c4)cc32)CN1 (centres unmarked) [Example 110, 1-[(5-Oxomorpholin-2-yl)methyl]-6-(1H-pyrrolo[2,3-b]pyridin-5-yl)-1,3-dihydro-2H-imidazo[4,5-b]pyridin-2-one] | < 0.05 | 3 to 25
15 | CO[C@H]1CC[C@@H](Cn2c(=O)[nH]c3ncc(-c4cnc5[nH]cc(Cl)c5c4)cc32)CC1 [Example 115, 6-(3-Chloro-1H-pyrrolo[2,3-b]pyridin-5-yl)-1-[(cis-4-methoxycyclohexyl)methyl]-1,3-dihydro-2H-imidazo[4,5-b]pyridin-2-one] | < 0.05 | < 3
16 | O=c1[nH]c2ncc(-c3cnc4[nH]cc(Cl)c4c3)cc2n1C[C@H]1CC[C@@H](O)CC1 [Example 116, 6-(3-Chloro-1H-pyrrolo[2,3-b]pyridin-5-yl)-1-[(cis-4-hydroxycyclohexyl)methyl]-1,3-dihydro-2H-imidazo[4,5-b]pyridin-2-one] | < 0.05 | < 3
17 | O=c1[nH]c2ncc(-c3cnc4[nH]ccc4c3Cl)cc2n1C[C@H]1COCCO1 [Example 117, 6-(4-Chloro-1H-pyrrolo[2,3-b]pyridin-5-yl)-1-[(2S)-1,4-dioxan-2-ylmethyl]-1,3-dihydro-2H-imidazo[4,5-b]pyridin-2-one] | < 0.05 | < 3
18 | O=c1[nH]c2ncc(-c3cnc4[nH]cc(F)c4c3)cc2n1C[C@H]1COCCO1 [Example 118, 1-[(2S)-1,4-Dioxan-2-ylmethyl]-6-(3-fluoro-1H-pyrrolo[2,3-b]pyridin-5-yl)-1,3-dihydro-2H-imidazo[4,5-b]pyridin-2-one] | < 0.05 | < 3
19 | Cc1nc2[nH]c(=O)n(C[C@H]3COCCO3)c2cc1-c1cnc2[nH]cc(F)c2c1 [Example 119, 1-[(2S)-1,4-Dioxan-2-ylmethyl]-6-(3-fluoro-1H-pyrrolo[2,3-b]pyridin-5-yl)-5-methyl-1,3-dihydro-2H-imidazo[4,5-b]pyridin-2-one] | < 0.05 | < 3
20 | O=c1[nH]c2ncc(-c3cnc4[nH]ccc4c3F)cc2n1C[C@H]1COCCO1 [Example 120, 1-[(2S)-1,4-Dioxan-2-ylmethyl]-6-(4-fluoro-1H-pyrrolo[2,3-b]pyridin-5-yl)-1,3-dihydro-2H-imidazo[4,5-b]pyridin-2-one] | < 0.05 | < 3
21 | O=c1[nH]c2ncc(-c3cnc4c(c3)CCN4)cc2n1C[C@H]1COCCO1 [Example 121, 6-(2,3-Dihydro-1H-pyrrolo[2,3-b]pyridin-5-yl)-1-[(2S)-1,4-dioxan-2-ylmethyl]-1,3-dihydro-2H-imidazo[4,5-b]pyridin-2-one] | < 0.05 | < 3
22 | O=c1[nH]c2ncc(-c3cnc4[nH]ccc4c3C(F)(F)F)cc2n1C[C@H]1COCCO1 [Example 122, 1-[(2S)-1,4-Dioxan-2-ylmethyl]-6-(4-(trifluoromethyl)-1H-pyrrolo[2,3-b]pyridin-5-yl)-1,3-dihydro-2H-imidazo[4,5-b]pyridin-2-one] | < 0.05 | < 3
23 | CCc1c(-c2cnc3[nH]c(=O)n(C[C@H]4COCCO4)c3c2)cnc2[nH]ccc12 [Example 123, 1-[(2S)-1,4-Dioxan-2-ylmethyl]-6-(4-ethyl-1H-pyrrolo[2,3-b]pyridin-5-yl)-1,3-dihydro-2H-imidazo[4,5-b]pyridin-2-one] | < 0.05 | < 3
24 | Cc1c[nH]c2ncc(-c3cnc4[nH]c(=O)n(C[C@H]5COCCO5)c4c3)c(C)c12 [Example 124, 6-(3,4-Dimethyl-1H-pyrrolo[2,3-b]pyridin-5-yl)-1-[(2S)-1,4-dioxan-2-ylmethyl]-1,3-dihydro-2H-imidazo[4,5-b]pyridin-2-one] | < 0.05 | < 3
25 | Cc1c(-c2cnc3[nH]c(=O)n(C[C@H]4COCCO4)c3c2)cnc2[nH]cc(Cl)c12 [Example 125, 6-(3-Chloro-4-methyl-1H-pyrrolo[2,3-b]pyridin-5-yl)-1-[(2S)-1,4-dioxan-2-ylmethyl]-1,3-dihydro-2H-imidazo[4,5-b]pyridin-2-one] | < 0.05 | < 3
26 | Cc1c(-c2cnc3[nH]c(=O)n(C[C@H]4COCCO4)c3c2)cnc2[nH]cc(F)c12 [Example 126, 1-[(2S)-1,4-Dioxan-2-ylmethyl]-6-(3-fluoro-4-methyl-1H-pyrrolo[2,3-b]pyridin-5-yl)-1,3-dihydro-2H-imidazo[4,5-b]pyridin-2-one] | < 0.05 | < 3
27 | O=c1[nH]c2ncc(-c3cc4cc[nH]c4nc3Cl)cc2n1C[C@H]1COCCO1 [Example 127, 6-(6-Chloro-1H-pyrrolo[2,3-b]pyridin-5-yl)-1-[(2S)-1,4-dioxan-2-ylmethyl]-1,3-dihydro-2H-imidazo[4,5-b]pyridin-2-one] | < 0.05 | < 3
28 | Cc1c(-c2cnc3[nH]c(=O)n(C[C@H]4COCCO4)c3c2)cc(F)c2[nH]ccc12 [Example 128, 1-[(2S)-1,4-Dioxan-2-ylmethyl]-6-(7-fluoro-4-methyl-1H-indol-5-yl)-1,3-dihydro-2H-imidazo[4,5-b]pyridin-2-one] | < 0.05 | < 3

— patent US8436012B2, “Imidazopyridin-2-one derivatives” (Daiichi Sankyo Company, Limited, priority 2008, dated 2013)
